The values that follow are results of earlier work, collected in patent publication US20260245667A1, “EFFICIENT DETECTION OF DECENTRALIZED BIOMARKERS OF GROUPS OF DNA SEQUENCES IN MICROBIOME DNA” (ALPHABIOME AI LTD, priority 2023, published 2026).

Series [1] has as its system ruminal methane production. Conditions: meta-analyses.

In the case of `C=CCS[S+]([O-])CC=C` (stereo not drawn) [Allicin], the “mitigation of methane emissions in vitro” value in the series with methane emissions (in vitro) is reported as “up to 38%”. In the series on methane emissions (partial incubation periods), the “levels of propionate and butyrate” value is given as “elevate”.

As for `CC[C@@]1([C@@H]2O[C@@H]([C@H]3O[C@@](O)(CO)[C@H](C)C[C@@H]3C)C[C@@H]2C)CC[C@H]([C@]2(C)CC[C@]3(C[C@H](O)[C@@H](C)[C@@H]([C@@H](C)[C@@H](OC)[C@H](C)C(=O)O)O3)O2)O1` [Monensin], the “methanogenesis inhibition, reduction on average in dairy” value in series [1] is given as “up to 10%”.
